From patent US11459336B2, “Pyrazine carbamates and their use as GluN2B receptor modulators” (JANSSEN PHARMACEUTICA NV, priority 2019, dated 2022) come the findings set out here.

The target of the assay is T1, human GluN1/GluN2B NMDA receptors (Homo sapiens, UniProt Q13224).
T1 construct: expressed in transfected cells
Kind of assay: Calcium flux (FLIPR) assay on cloned human GluN1/GluN2B ion channels expressed in mammalian cells, standard assay. The format is cell-based. As to conditions: glutamate ~EC40, 10 μM glycine, stable cell line with Tet-On induced expression. The protocol: NMDA receptors are ion channels that are highly permeable to Ca^2+ ions, rendering it possible to monitor NMDA receptor function using cell-based calcium flux assay. In this assay, co-agonists glutamate and glycine are added to cells heterologously expressing human GluN1/GluN2B NMDA receptors to initiate cellular Ca^2+ influx. The time course of the changes in intracellular calcium is measured using a fluorescent dye and a FLIPR (Fluorometric Imaging Plate Reader) device.
Twenty four hours before measurements, the expression of the NMDA receptors in the stable cell line is induced with Tet-On inducible system in the presence of a non-selective NMDA receptor blocker. On the day of the experiment, cell culture media is carefully washed and the cells are loaded with Calcium 5 Dye Kit (Molecular Devices) in dye loading buffer containing 137 mM NaCl, 4 mM KCl, 2 mM CaCl2, 0.5 mM MgCl2 (standard assay) or 1.5 mM MgCl2 (HTS assay), 10 mM HEPES and 5 mM D-glucose; pH 7.4. After 1 h incubation at the room temperature, the dye is washed away with the assay buffer (137 mM NaCl (standard assay) or 150 mM (HTS assay), 4 mM KCl (standard assay) or 3 mM (HTS assay), 2 mM CaCl2, 0.01 mM EDTA, 10 mM HEPES and 5 mM D-glucose; pH 7.4) In the FLIPR TETRA reader, various concentrations of the test compounds are added to the cells for 5 min while fluorescence is monitored to detect potential agonist activity. Next, co-agonists, glutamate and glycine are added for another 5 minutes. The concentration of glutamate corresponding to ˜EC40 (standard assay) or EC40 (HTS assay) is used to maximize the assay's signal window and ability to detect NMDA receptor antagonists and negative allosteric modulators. A saturating concentration (10 μM) of glycine is also present in the assay. A non-selective NMDA receptor antagonist, (+)MK-801 is used as a positive control for antagonist activity. The fluorescent signal in the presence of test compounds is quantified and normalized to the signal defined by the appropriate control wells.
(In general: A change in cytosolic calcium serves as a functional read-out for many receptors and channels.)

T1 sequence (Q13224 27-1484, other chains not shown): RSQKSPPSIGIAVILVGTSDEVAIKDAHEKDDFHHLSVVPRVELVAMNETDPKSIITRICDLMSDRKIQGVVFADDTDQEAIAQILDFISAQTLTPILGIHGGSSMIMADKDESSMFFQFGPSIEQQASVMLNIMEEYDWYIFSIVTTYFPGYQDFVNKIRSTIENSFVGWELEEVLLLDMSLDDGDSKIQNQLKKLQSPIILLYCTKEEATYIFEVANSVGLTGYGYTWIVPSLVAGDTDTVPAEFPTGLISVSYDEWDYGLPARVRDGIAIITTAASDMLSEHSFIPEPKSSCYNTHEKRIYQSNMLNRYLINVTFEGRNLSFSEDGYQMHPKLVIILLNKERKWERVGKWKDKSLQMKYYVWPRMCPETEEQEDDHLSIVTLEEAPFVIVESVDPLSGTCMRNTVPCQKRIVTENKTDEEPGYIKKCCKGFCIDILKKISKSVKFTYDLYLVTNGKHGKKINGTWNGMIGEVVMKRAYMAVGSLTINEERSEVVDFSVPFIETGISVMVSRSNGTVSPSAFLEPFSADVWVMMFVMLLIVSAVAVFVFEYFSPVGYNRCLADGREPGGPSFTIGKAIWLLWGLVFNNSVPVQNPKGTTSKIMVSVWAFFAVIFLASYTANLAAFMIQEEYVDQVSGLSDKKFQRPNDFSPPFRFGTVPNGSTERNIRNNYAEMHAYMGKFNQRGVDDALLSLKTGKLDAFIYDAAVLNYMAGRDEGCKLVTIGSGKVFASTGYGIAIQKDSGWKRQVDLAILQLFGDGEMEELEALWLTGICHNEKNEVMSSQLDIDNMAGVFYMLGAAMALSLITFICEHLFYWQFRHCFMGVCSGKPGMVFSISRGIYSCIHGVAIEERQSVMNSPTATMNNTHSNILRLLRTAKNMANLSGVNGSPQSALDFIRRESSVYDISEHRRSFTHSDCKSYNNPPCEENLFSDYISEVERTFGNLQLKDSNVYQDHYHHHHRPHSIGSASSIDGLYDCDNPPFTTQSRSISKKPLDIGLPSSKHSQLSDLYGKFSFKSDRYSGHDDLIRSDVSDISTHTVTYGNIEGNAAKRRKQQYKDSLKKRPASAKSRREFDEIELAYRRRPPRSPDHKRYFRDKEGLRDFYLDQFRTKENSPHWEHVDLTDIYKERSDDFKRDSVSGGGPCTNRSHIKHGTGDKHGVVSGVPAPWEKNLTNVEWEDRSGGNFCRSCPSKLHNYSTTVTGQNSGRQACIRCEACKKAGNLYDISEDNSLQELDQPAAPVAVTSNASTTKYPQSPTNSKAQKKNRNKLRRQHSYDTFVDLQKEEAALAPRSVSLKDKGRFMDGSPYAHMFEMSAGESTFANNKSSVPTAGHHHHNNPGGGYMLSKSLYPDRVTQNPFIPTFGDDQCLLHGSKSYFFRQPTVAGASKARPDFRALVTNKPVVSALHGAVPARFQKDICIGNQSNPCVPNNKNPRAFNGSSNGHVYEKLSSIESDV

Broadly, the IC50 is the concentration that inhibits the measured activity by half. With `O=C1OCCN1Cc1cncc(-c2ccc(F)c(C(F)F)c2)n1` [Example 1, 3-[[6-[3-(Difluoromethyl)-4-fluoro-phenyl]pyrazin-2-yl]methyl]oxazolidin-2-one], the concentration for half-maximal inhibition (IC50) worked out at 195 nM. With `O=C1OCCN1Cc1cncc(-c2ccc(F)c(OC(F)F)c2)n1` [Example 2, 3-[[6-[3-(Difluoromethoxy)-4-fluoro-phenyl]pyrazin-2-yl]methyl]oxazolidin-2-one], the IC50 was found to be 73 nM. For `CC1(C)CN(Cc2cncc(-c3ccc(F)c(C(F)F)c3)n2)C(=O)O1` [Example 4, 3-[[6-[3-(Difluoromethyl)-4-fluoro-phenyl]pyrazin-2-yl]methyl]-5,5-dimethyl-oxazolidin-2-one] the value was 1360 nM; for `C[C@@H]1CN(Cc2cncc(-c3ccc(F)c(C(F)F)c3)n2)C(=O)O1` [Example 5, (5R)-3-[[6-[3-(Difluoromethyl)-4-fluoro-phenyl]pyrazin-2-yl]methyl]-5-methyl-oxazolidin-2-one], 29 nM; for `C[C@H]1CN(Cc2cncc(-c3ccc(F)c(C(F)F)c3)n2)C(=O)O1` [Example 6, (5S)-3-[[6-[3-(Difluoromethyl)-4-fluoro-phenyl]pyrazin-2-yl]methyl]-5-methyl-oxazolidin-2-one], 60 nM. For `C[C@@H]1COC(=O)N1Cc1cncc(-c2ccc(F)c(C(F)F)c2)n1` [Example 7, (4R)-3-[[6-[3-(Difluoromethyl)-4-fluoro-phenyl]pyrazin-2-yl]methyl]-4-methyl-oxazolidin-2-one], the IC50 came out at 288 nM. As for `O=C1OCCCN1Cc1cncc(-c2ccc(F)c(C(F)F)c2)n1` [Example 9, 3-[[6-[3-(Difluoromethyl)-4-fluoro-phenyl]pyrazin-2-yl]methyl]-1,3-oxazinan-2-one], the figure is 65 nM; as for `Cc1ncc(-c2ccc(F)c(C(F)F)c2)nc1CN1CC2(CC2)OC1=O` [Example 10, 5-[[6-[3-(Difluoromethyl)-4-fluoro-phenyl]-3-methyl-pyrazin-2-yl]methyl]-7-oxa-5-azaspiro[2.4]heptan-6-one], 37 nM. On to `Cc1ncc(-c2ccc(F)c(C(F)F)c2)nc1CN1C(=O)OC[C@@H]1C` [Example 12, (4S)-3-[[6-[3-(Difluoromethyl)-4-fluoro-phenyl]-3-methyl-pyrazin-2-yl]methyl]-4-methyl-oxazolidin-2-one], for which the IC50 worked out at 605 nM. For `Cc1ncc(-c2ccc(F)c(C(F)F)c2)nc1CN1C[C@@H](C)OC1=O` [Example 13, (5R)-3-[[6-[3-(Difluoromethyl)-4-fluoro-phenyl]-3-methyl-pyrazin-2-yl]methyl]-5-methyl-oxazolidin-2-one], the IC50 is 45 nM. As for `Cc1ncc(-c2ccc(F)c(C(F)F)c2)nc1CN1C[C@H](C)OC1=O` [Example 14, (5S)-3-[[6-[3-(Difluoromethyl)-4-fluoro-phenyl]-3-methyl-pyrazin-2-yl]methyl]-5-methyl-oxazolidin-2-one], the figure is 50 nM. For the compound `O=C1OC2(CC2)CN1Cc1cncc(-c2ccc(F)c(OC(F)F)c2)n1` [Example 16, 5-[[6-[3-(Difluoromethoxy)-4-fluoro-phenyl]pyrazin-2-yl]methyl]-7-oxa-5-azaspiro[2.4]heptan-6-one], the IC50 was determined as 19 nM. As for `CC1(C)CN(Cc2cncc(-c3ccc(F)c(OC(F)F)c3)n2)C(=O)O1` [Example 17, 3-[[6-[3-(Difluoromethoxy)-4-fluoro-phenyl]pyrazin-2-yl]methyl]-5,5-dimethyl-oxazolidin-2-one], the figure is 1140 nM; as for `C[C@@H]1COC(=O)N1Cc1cncc(-c2ccc(F)c(OC(F)F)c2)n1` [Example 18, (4R)-3-[[6-[3-(Difluoromethoxy)-4-fluoro-phenyl]pyrazin-2-yl]methyl]-4-methyl-oxazolidin-2-one], 44 nM.

Regarding `C[C@H]1COC(=O)N1Cc1cncc(-c2ccc(F)c(OC(F)F)c2)n1` [Example 19, (4S)-3-[[6-[3-(Difluoromethoxy)-4-fluoro-phenyl]pyrazin-2-yl]methyl]-4-methyl-oxazolidin-2-one], the IC50 amounted to 291 nM. Regarding `C[C@@H]1CN(Cc2cncc(-c3ccc(F)c(OC(F)F)c3)n2)C(=O)O1` [Example 20, (5R)-3-[[6-[3-(Difluoromethoxy)-4-fluoro-phenyl]pyrazin-2-yl]methyl]-5-methyl-oxazolidin-2-one], the 50% inhibitory concentration (IC50) came to 29 nM. In the case of `C[C@H]1CN(Cc2cncc(-c3ccc(F)c(OC(F)F)c3)n2)C(=O)O1` [Example 21, (5S)-3-[[6-[3-(Difluoromethoxy)-4-fluoro-phenyl]pyrazin-2-yl]methyl]-5-methyl-oxazolidin-2-one], the IC50 came to 20 nM. As for `O=C1OCCCN1Cc1cncc(-c2ccc(F)c(OC(F)F)c2)n1` [Example 22, 3-[[6-[3-(Difluoromethoxy)-4-fluoro-phenyl]pyrazin-2-yl]methyl]-1,3-oxazinan-2-one], the figure is 17 nM; as for `Cc1ncc(-c2ccc(F)c(OC(F)F)c2)nc1CN1CC2(CC2)OC1=O` [Example 23, 5-[[6-[3-(Difluoromethoxy)-4-fluoro-phenyl]-3-methyl-pyrazin-2-yl]methyl]-7-oxa-5-azaspiro[2.4]heptan-6-one], 66 nM. With `Cc1ncc(-c2ccc(F)c(OC(F)F)c2)nc1CN1C(=O)OC[C@H]1C` [Example 24, (4R)-3-[[6-[3-(Difluoromethoxy)-4-fluoro-phenyl]-3-methyl-pyrazin-2-yl]methyl]-4-methyl-oxazolidin-2-one], the IC50 amounted to 78 nM. As for `Cc1ncc(-c2ccc(F)c(OC(F)F)c2)nc1CN1C(=O)OC[C@@H]1C` [Example 25, (4S)-3-[[6-[3-(Difluoromethoxy)-4-fluoro-phenyl]-3-methyl-pyrazin-2-yl]methyl]-4-methyl-oxazolidin-2-one], the IC50 came out at 388 nM. Take `Cc1ncc(-c2ccc(F)c(OC(F)F)c2)nc1CN1C[C@@H](C)OC1=O` [Example 26, (5R)-3-[[6-[3-(Difluoromethoxy)-4-fluoro-phenyl]-3-methyl-pyrazin-2-yl]methyl]-5-methyl-oxazolidin-2-one]: the IC50 turned out to be 52 nM. As for `Cc1ncc(-c2ccc(F)c(OC(F)F)c2)nc1CN1C[C@H](C)OC1=O` [Example 27, (5S)-3-[[6-[3-(Difluoromethoxy)-4-fluoro-phenyl]-3-methyl-pyrazin-2-yl]methyl]-5-methyl-oxazolidin-2-one], the figure is 48 nM; as for `Cc1ncc(-c2ccc(F)c(OC(F)F)c2)nc1CN1CCCOC1=O` [Example 28, 3-[[6-[3-(Difluoromethoxy)-4-fluoro-phenyl]-3-methyl-pyrazin-2-yl]methyl]-1,3-oxazinan-2-one], 39 nM; as for `O=C1OC2(CC2)CN1Cc1cncc(-c2ccc(Cl)c(OC(F)F)c2)n1` [Example 29, 5-[[6-[4-Chloro-3-(difluoromethoxy)phenyl]pyrazin-2-yl]methyl]-7-oxa-5-azaspiro[2.4]heptan-6-one], 19 nM. Consider `CC1(C)CN(Cc2cncc(-c3ccc(Cl)c(OC(F)F)c3)n2)C(=O)O1` [Example 30, 3-[[6-[4-Chloro-3-(difluoromethoxy)phenyl]pyrazin-2-yl]methyl]-5,5-dimethyl-oxazolidin-2-one], for which the IC50 was found to be 669 nM. Regarding `C[C@@H]1CN(Cc2cncc(-c3ccc(Cl)c(OC(F)F)c3)n2)C(=O)O1` [Example 31, (5R)-3-[[6-[4-Chloro-3-(difluoromethoxy)phenyl]pyrazin-2-yl]methyl]-5-methyl-oxazolidin-2-one], the IC50 came out at 20 nM. For `C[C@H]1CN(Cc2cncc(-c3ccc(Cl)c(OC(F)F)c3)n2)C(=O)O1` [Example 32, (5S)-3-[[6-[4-Chloro-3-(difluoromethoxy)phenyl]pyrazin-2-yl]methyl]-5-methyl-oxazolidin-2-one] the value was 20 nM; for `C[C@@H]1COC(=O)N1Cc1cncc(-c2ccc(Cl)c(OC(F)F)c2)n1` [Example 33, (4R)-3-[[6-[4-Chloro-3-(difluoromethoxy)phenyl]pyrazin-2-yl]methyl]-4-methyl-oxazolidin-2-one], 21 nM; for `C[C@H]1COC(=O)N1Cc1cncc(-c2ccc(Cl)c(OC(F)F)c2)n1` [Example 34, (4S)-3-[[6-[4-Chloro-3-(difluoromethoxy)phenyl]pyrazin-2-yl]methyl]-4-methyl-oxazolidin-2-one], 86 nM. Take `O=C1OCCCN1Cc1cncc(-c2ccc(Cl)c(OC(F)F)c2)n1` [Example 35, 3-[[6-[4-Chloro-3-(difluoromethoxy)phenyl]pyrazin-2-yl]methyl]-1,3-oxazinan-2-one]: the half-inhibitory concentration (IC50) was 13 nM. With `Cc1ncc(-c2ccc(Cl)c(OC(F)F)c2)nc1CN1CC2(CC2)OC1=O` [Example 36, 5-[[6-[4-Chloro-3-(difluoromethoxy)phenyl]-3-methyl-pyrazin-2-yl]methyl]-7-oxa-5-azaspiro[2.4]heptan-6-one], the IC50 stood at 113 nM.
